The results in this text go back to patent US9914730B2, “Azaquinazoline inhibitors of Atypical protein Kinase C” (Ignyta, Inc., priority 2012, dated 2018).

For the test, the target named is T1, full-length human PKCι (Homo sapiens, UniProt P41743).
T1 construct: Recombinant, full-length human PKCι expressed in Sf21 insect cells is also commercially available; purchased; host or cells: Sf21 insect cells
T1 sequence (P41743 1-596): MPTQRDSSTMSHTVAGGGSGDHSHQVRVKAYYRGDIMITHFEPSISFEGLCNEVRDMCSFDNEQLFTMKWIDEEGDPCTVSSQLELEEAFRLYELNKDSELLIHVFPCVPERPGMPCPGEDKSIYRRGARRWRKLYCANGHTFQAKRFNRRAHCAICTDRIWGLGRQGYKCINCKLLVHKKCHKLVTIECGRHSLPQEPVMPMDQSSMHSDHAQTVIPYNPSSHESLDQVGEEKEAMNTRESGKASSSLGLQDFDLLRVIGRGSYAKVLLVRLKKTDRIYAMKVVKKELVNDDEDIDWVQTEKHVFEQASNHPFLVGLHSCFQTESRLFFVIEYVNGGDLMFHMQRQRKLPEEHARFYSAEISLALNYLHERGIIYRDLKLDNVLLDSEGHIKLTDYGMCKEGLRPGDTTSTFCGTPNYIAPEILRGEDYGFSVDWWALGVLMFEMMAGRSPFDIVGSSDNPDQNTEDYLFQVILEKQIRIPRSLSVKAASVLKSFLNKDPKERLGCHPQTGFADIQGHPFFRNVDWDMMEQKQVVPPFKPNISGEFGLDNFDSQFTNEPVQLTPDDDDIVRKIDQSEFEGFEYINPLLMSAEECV
Put plainly: PKCι IC50 IMAP assay, full-length PKCι at 150 μM ATP. Type of test: biochemical. As to conditions: read-out: IC50 in IMAP assay against full length PKCi at 150 μM ATP. The gist of the method: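 IMAP fluorescence polarisation (ex 485/em 530 nm) read-out; % inhibition set from no-compound (0%) and no-enzyme (100%) controls, IC50 from dose-response curve fit. Sf21-expressed full-length enzyme ~15 pM, 100 nM FAM peptide, ATP 150 μM (5× KM^APP), 60 min at RT.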

As for `c1ccc(C[C@H]2CN(Cc3ccccc3)CCN2c2nc(-c3ccncc3)nc3cnccc23)cc1` [Example 20, (2S)-2,4-dibenzyl-1-[2-(pyridin-4-yl)-pyrido[3,4-d]-pyrimidin-4-yl]-piperazine], the IC50 is 10 to 40 µM.

Consider `COc1cncc2nc(-c3ccnc(Nc4ccccc4)c3)nc(N3CC[C@@H](O)[C@@H](O)CC3)c12` [Example 467, (meso)-cis-1-[5-Methoxy-2-(2-phenylamino-pyridin-4-yl)-pyrido[3,4-d]pyrimidin-4-yl]-azepane-4,5-diol], for which the half-maximal inhibitory concentration (IC50) lay within 1 to 10 µM. As for `Fc1ccc(Nc2cc(-c3nc(N4CCNCC4)c4c(Cl)cncc4n3)ccn2)c(F)c1` [Example 255, [4-(5-Chloro-4-piperazin-1-yl-pyrido[3,4-d]pyrimidin-2-yl)-pyridin-2-yl]-(2,4-difluoro-phenyl)-amine], the IC50 was 0.1 to 1 µM.

With `FC(F)(F)C1CN(c2nc(-c3ccnc4[nH]ccc34)nc3cncc(C4CC4)c23)CCN1` (centres unmarked) [Example 1218, 5-Cyclopropyl-2-(1H-pyrrolo[2,3-b]pyridin-4-yl)-4-(3-trifluoromethyl-piperazin-1-yl)-pyrido[3,4-d]pyrimidine], the IC50 was less than 0.1 µM. Consider `COc1cncc2nc(-c3ccnc(Nc4cccc(C(F)(F)F)n4)c3)nc(N3CCNCC3)c12` [Example 449, [4-(5-Methoxy-4-piperazin-1-yl-pyrido[3,4-d]pyrimidin-2-yl)-pyridin-2-yl]-(6-trifluoromethyl-pyridin-2-yl)-amine], for which the IC50 was less than 0.1 µM.

Turning to `O[C@@H]1CN(c2nc(-c3ccnc4[nH]c(C(F)(F)F)cc34)nc3cncc(C4CC4)c23)CC[C@@H]1O` (racemic) [Example 1234, (+/−)-(cis)-1-[5-Cyclopropyl-2-(2-trifluoromethyl-1H-pyrrolo[2,3-b]pyridin-4-yl)-pyrido[3,4-d]pyrimidin-4-yl]-piperidine-3,4-diol], the IC50 was 0.1 to 1 µM. On to `COc1cncc2nc(-c3ccnc(NC(=O)Cc4cccc(C#N)c4)c3)nc(N3CCOCC3)c12` [Example 389, 2-(3-Cyano-phenyl)-N-[4-(5-methoxy-4-morpholin-4-yl-pyrido[3,4-d]pyrimidin-2-yl)-pyridin-2-yl]-acetamide], for which the IC50 is 0.1 to 1 µM. Next, `CC1(C)CNCCC1Nc1nc(-c2ccnc(Nc3nc(F)c(F)cc3F)c2)nc2cncc(C3CC3)c12` (centres unmarked) [Example 2176, {5-Cyclopropyl-2-[2-(3,5,6-trifluoro-pyridin-2-ylamino)-pyridin-4-yl]-pyrido[3,4-d]pyrimidin-4-yl}-(3,3-dimethyl-piperidin-4-yl)-amine]: less than 0.1 µM; `CC(C)(C)c1cc2c(-c3nc(N4CCC(O)CC4)c4c(C5CC5)cncc4n3)ccnc2[nH]1` [Example 1247, 1-[2-(2-tert-Butyl-1H-pyrrolo[2,3-b]pyridin-4-yl)-5-cyclopropyl-pyrido[3,4-d]pyrimidin-4-yl]-piperidin-4-ol]: less than 0.1 µM. Next, `OC1CCN(c2nc(-c3ccnc(Nc4cccc(F)n4)c3)nc3cncc(C4CC4)c23)CC1` [Example 805, 1-{5-Cyclopropyl-2-[2-(6-fluoro-pyridin-2-ylamino)-pyridin-4-yl]-pyrido[3,4-d]pyrimidin-4-yl}-piperidin-4-ol]: 0.1 to 1 µM; `COc1cncc2nc(-c3ccnc(NC(=O)[C@@H](C)c4ccccc4)c3)nc(N3CCNCC3)c12` [Example 409, (S)-N-[4-(5-Methoxy-4-piperazin-1-yl-pyrido[3,4-d]pyrimidin-2-yl)-pyridin-2-yl]-2-phenyl-propionamide]: 0.1 to 1 µM. In the case of `CC(C)c1cccc(Nc2cc(-c3nc(N4CCNCC4)c4c(C5CC5)cncc4n3)ccn2)c1` [Example 622, [4-(5-Cyclopropyl-4-piperazin-1-yl-pyrido[3,4-d]pyrimidin-2-yl)-pyridin-2-yl]-(3-isopropyl-phenyl)-amine] it was less than 0.1 µM.

For the molecule `c1cc2c(N[C@@H]3CCNC3)nc(-c3ccnc(Nc4ccc(N5CCOCC5)cn4)c3)nc2cn1` [Example 357, {2-[2-(5-Morpholin-4-yl-pyridin-2-ylamino)-pyridin-4-yl]-pyrido[3,4-d]pyrimidin-4-yl}-(R)-pyrrolidin-3-yl-amine], the half-inhibitory concentration (IC50) is less than 0.1 µM. Next, `COc1cncc2nc(-c3ccnc(Nc4cccc(C)n4)c3)nc(N3CCNCC3)c12` [Example 415, [4-(5-Methoxy-4-piperazin-1-yl-pyrido[3,4-d]pyrimidin-2-yl)-pyridin-2-yl]-(6-methyl-pyridin-2-yl)-amine]: less than 0.1 µM. Next, `c1ccc(Nc2cc(-c3nc(N4CCNCC4)c4ccncc4n3)ccn2)cc1` [Example 494, Phenyl-[4-(4-piperazin-1-yl-pyrido[3,4-d]pyrimidin-2-yl)-pyridin-2-yl]-amine]: 0.1 to 1 µM; `COC[C@H]1CN(c2nc(N3CCOCC3)nc3cncc(OC)c23)CCN1` [Example 1009, 5-Methoxy-4-((R)-3-methoxymethyl-piperazin-1-yl)-2-morpholin-4-yl-pyrido[3,4-d]pyrimidine]: 1 to 10 µM. Next, `CN(c1nc(-c2ccnc(Nc3ncc(F)cc3F)c2)nc2cncc(C3CC3)c12)C1CCNCC1(C)C` (centres unmarked) [Example 2196, {5-Cyclopropyl-2-[2-(3,5-difluoro-pyridin-2-ylamino)-pyridin-4-yl]-pyrido[3,4-d]pyrimidin-4-yl}-(3,3-dimethyl-piperidin-4-yl)-methyl-amine]: less than 0.1 µM; `COc1cccc(Nc2cc(-c3nc(N4CCNCC4)c4c(C5CC5)cncc4n3)ccn2)c1F` [Example 589, [4-(5-Cyclopropyl-4-piperazin-1-yl-pyrido[3,4-d]pyrimidin-2-yl)-pyridin-2-yl]-(2-fluoro-3-methoxy-phenyl)-amine]: less than 0.1 µM; `Nc1cccc(C(=O)Nc2cc(-c3nc(N[C@@H]4CCNC4)c4ccncc4n3)ccn2)c1` [Example 309, 3-Amino-N-{4-[4-((R)-pyrrolidin-3-ylamino)-pyrido[3,4-d]pyrimidin-2-yl]-pyridin-2-yl}-benzamide]: 0.1 to 1 µM.

For `COCCN1CCN(c2nc(-c3ccnc(NC(=O)C4CC4)c3)nc3cncc(C4CC4)c23)CC1` [Example 666, Cyclopropane-carboxylic acid (4-{5-cyclopropyl-4-[4-(2-methoxy-ethyl)-piperazin-1-yl]-pyrido[3,4-d]pyrimidin-2-yl}-pyridin-2-yl)-amide], the 50% inhibitory concentration (IC50) was in the range of 1 to 10 µM. `COc1cncc2nc(-c3ccnc(Nc4ccccc4)c3)nc(N3CCN4C(=O)OC[C@H]4C3)c12` [Example 435, (R)-7-[5-Methoxy-2-(2-phenylamino-pyridin-4-yl)-pyrido[3,4-d]pyrimidin-4-yl]-hexahydro-oxazolo[3,4-a]pyrazin-3-one]: the IC50 fell in the range of 0.1 to 1 µM. For `COc1cncc2nc(-c3ccnc(Nc4ccc(F)cc4)c3)nc(N[C@@H]3CCNC3)c12` [Example 230, {2-[2-(4-Fluoro-phenyl-amino)-pyridin-4-yl]-5-methoxy-pyrido[3,4-d]pyrimidin-4-yl}-(R)-pyrrolidin-3-yl-amine], the IC50 is less than 0.1 µM. As to `CN1CCN(c2cccc(Nc3cc(-c4nc(N5CCC[C@H](O)C5)c5c(C6CC6)cncc5n4)ccn3)c2)CC1` [Example 737, (S)-1-(5-Cyclopropyl-2-{2-[3-(4-methyl-piperazin-1-yl)-phenylamino]-pyridin-4-yl}-pyrido[3,4-d]pyrimidin-4-yl)-piperidin-3-ol], the IC50 is less than 0.1 µM. For `FC(F)(F)Oc1ccc(Nc2cc(-c3nc(N4CCNCC4)c4c(C5CC5)cncc4n3)ccn2)cc1` [Example 2162, [4-(5-Cyclopropyl-4-piperazin-1-yl-pyrido[3,4-d]pyrimidin-2-yl)-pyridin-2-yl]-(4-trifluoromethoxy-phenyl)-amine], the half-maximal inhibitory concentration (IC50) is less than 0.1 µM.

On to `N#Cc1ccc(Nc2cc(-c3nc(N[C@@H]4CCNC4)c4ccncc4n3)ccn2)nc1` [Example 341, 6-{4-[4-((R)-Pyrrolidin-3-ylamino)-pyrido[3,4-d]pyrimidin-2-yl]-pyridin-2-ylamino}-nicotinonitrile], for which the IC50 is less than 0.1 µM. Turning to “[4-(5-Cyclopropyl- 4-piperazin-1-yl- pyrido[3,4- d]pyrimidin-2-yl)- pyridin-2-yl]-(4- trifluoromethyl- phenyl)-amine [Example 596]”, the IC50 fell in the range of 10 to 40 µM. For the molecule `Fc1ccc(Nc2cc(-c3nc(N4CCCNCC4)c4c(C5CC5)cncc4n3)ccn2)cc1` [Example 699, [4-(5-Cyclopropyl-4-[1,4]diazepan-1-yl-pyrido[3,4-d]pyrimidin-2-yl)-pyridin-2-yl]-(4-fluoro-phenyl)-amine], the IC50 was less than 0.1 µM. As to `CN1CCN(c2cccc(Nc3cc(-c4nc(N5CCC(O)CC5)c5c(C6CC6)cncc5n4)ccn3)c2)CC1` [Example 688, 1-(5-Cyclopropyl-2-{2-[3-(4-methyl-piperazin-1-yl)-phenylamno]-pyridin-4-yl}-pyrido[3,4-d]pyrimidin-4-yl)-piperidin-4-ol], the IC50 was less than 0.1 µM. Next, `Fc1ccccc1Nc1cc(-c2nc(N3CCNCC3)c3c(C4CC4)cncc3n2)ccn1` [Example 263, [4-(5-Cyclopropyl-4-piperazin-1-yl-pyrido[3,4-d]pyrimidin-2-yl)-pyridin-2-yl]-(2-fluoro-phenyl)-amine]: less than 0.1 µM.

A word on the IC50: it is the midpoint of a concentration-inhibition curve.
